# Experimental data taken from ChEMBL document CHEMBL1201862, “PubChem BioAssay data set” (2004).
# Active and inactive are the calls of the source.
# Legend:
# [1] = biological target: Potassium channel subfamily K member 9 (Homo sapiens, UniProt Q9NPC2); assay: KCNK9 flux blockade, concentration-response – cell-based, FluxOR thallium flux, selectivity assay for TASK1 inhibitor project, SAR follow-up (AID 652211); format: functional;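 also: potency is for inhibitors of the channel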
# [2] = biological target: Potassium channel subfamily K member 3 (Homo sapiens, UniProt O14649); assay: inhibition of human KCNK3 channel flux – CHO cells, FluxOR thallium flux, SAR follow-up (AID 652212); format: functional
# Sequence of Potassium channel subfamily K member 3 (O14649 whole entry): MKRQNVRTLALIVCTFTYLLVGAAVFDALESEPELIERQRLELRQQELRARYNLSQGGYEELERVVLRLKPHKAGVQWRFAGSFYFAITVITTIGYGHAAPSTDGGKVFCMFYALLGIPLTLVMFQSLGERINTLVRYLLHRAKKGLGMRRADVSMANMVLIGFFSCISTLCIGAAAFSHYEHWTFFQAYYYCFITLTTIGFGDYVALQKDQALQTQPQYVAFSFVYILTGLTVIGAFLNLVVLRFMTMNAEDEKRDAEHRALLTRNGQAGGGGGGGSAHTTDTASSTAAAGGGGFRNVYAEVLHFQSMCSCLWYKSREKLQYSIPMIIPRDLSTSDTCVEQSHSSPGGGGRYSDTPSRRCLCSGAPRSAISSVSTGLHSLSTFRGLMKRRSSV
# [3] = HGIII-sPLA2 enzyme inhibition potency – biochemical, QFRET, IC50, dose response (AID 743457);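 also: green fluorescence rise as the enzyme cleaves BODIPY PC-A2 in liposomes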
# [4] = biological target: T1, DNA repair and recombination protein RAD54-like (Homo sapiens, UniProt Q92698); assay: RAD54 Holliday junction migration blockers – biochemical, fluorescence, cherry-picked samples, dose series, confirmation (AID 651657); format: functional
# T1 sequence (Q92698 whole entry): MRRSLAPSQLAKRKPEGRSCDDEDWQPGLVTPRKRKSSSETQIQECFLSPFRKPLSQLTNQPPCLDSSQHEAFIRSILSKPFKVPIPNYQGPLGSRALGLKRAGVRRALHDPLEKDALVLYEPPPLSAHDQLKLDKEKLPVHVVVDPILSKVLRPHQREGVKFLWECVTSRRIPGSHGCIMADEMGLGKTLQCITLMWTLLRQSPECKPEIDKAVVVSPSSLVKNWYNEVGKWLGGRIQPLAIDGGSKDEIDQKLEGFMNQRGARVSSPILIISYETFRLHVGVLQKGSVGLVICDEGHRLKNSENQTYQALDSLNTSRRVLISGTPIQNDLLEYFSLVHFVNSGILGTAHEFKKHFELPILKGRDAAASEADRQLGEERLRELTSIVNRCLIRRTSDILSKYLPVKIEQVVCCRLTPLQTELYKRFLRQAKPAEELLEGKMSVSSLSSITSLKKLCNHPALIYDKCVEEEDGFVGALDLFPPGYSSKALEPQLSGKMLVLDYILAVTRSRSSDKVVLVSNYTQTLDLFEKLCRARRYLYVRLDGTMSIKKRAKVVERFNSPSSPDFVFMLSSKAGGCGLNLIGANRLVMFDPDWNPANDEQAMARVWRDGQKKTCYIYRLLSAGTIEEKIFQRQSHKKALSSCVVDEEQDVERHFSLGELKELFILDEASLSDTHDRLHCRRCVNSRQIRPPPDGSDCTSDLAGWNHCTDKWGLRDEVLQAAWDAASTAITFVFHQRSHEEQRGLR
# cells = conditions: A549
# [5] = OVCAR-3 cell viability loss – plate reader, dry powder samples, PAX8 inhibitor project, dose response (AID 743044); format: functional, cell-based
# [6] = OVCAR8 cell viability loss – plate reader, dry powder samples, PAX8 project, dose response (AID 743197); format: functional, cell-based; conditions: OVCAR-8
# Paired box protein Pax-8 = Paired box protein Pax-8 (Homo sapiens, UniProt Q06710); assay: PAX8 transcriptional activity inhibition in RMG-I – RMG-I cells, luciferase, cherry-pick, dose response (AID 687027); format: functional, cell-based;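 also: luciferase reporter driven by Pax8 target thyroperoxidase promoter measured by SteadyGlo luminescence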
# Sequence of Paired box protein Pax-8 (Q06710 whole entry): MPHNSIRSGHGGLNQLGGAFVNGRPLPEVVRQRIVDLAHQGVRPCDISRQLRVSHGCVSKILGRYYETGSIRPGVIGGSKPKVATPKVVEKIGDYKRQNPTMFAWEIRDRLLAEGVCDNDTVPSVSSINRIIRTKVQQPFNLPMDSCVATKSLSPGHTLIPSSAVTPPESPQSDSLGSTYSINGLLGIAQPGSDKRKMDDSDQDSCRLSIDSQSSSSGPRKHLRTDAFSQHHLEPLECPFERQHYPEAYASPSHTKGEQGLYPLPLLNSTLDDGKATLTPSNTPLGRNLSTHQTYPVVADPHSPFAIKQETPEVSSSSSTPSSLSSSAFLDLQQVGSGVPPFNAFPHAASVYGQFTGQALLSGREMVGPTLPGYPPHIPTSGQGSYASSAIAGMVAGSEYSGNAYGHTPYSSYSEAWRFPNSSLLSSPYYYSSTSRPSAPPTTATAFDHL
# [7] = general cell-killing toxicity readout – plate reader, dry powder samples, cytotoxicity control for PAX8 inhibitor project, dose response (AID 743021); format: functional, cell-based
# [8] = inhibition of ADAM10 peptide cleavage – biochemical, FRET peptide substrate, recombinant human ADAM10, selectivity assay for ADAM17 exosite inhibitor project, dose response (AID 743259);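 also: ADAM10 enzyme cleaving a FRET peptide substrate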
# [9] = biological target: Disintegrin and metalloproteinase domain-containing protein 17 (Homo sapiens, UniProt P78536); assay: exosite inhibitors of ADAM17, dose response, biochemical (AID 743260)
# Sequence of Disintegrin and metalloproteinase domain-containing protein 17 (P78536 whole entry, the tested form may be a part): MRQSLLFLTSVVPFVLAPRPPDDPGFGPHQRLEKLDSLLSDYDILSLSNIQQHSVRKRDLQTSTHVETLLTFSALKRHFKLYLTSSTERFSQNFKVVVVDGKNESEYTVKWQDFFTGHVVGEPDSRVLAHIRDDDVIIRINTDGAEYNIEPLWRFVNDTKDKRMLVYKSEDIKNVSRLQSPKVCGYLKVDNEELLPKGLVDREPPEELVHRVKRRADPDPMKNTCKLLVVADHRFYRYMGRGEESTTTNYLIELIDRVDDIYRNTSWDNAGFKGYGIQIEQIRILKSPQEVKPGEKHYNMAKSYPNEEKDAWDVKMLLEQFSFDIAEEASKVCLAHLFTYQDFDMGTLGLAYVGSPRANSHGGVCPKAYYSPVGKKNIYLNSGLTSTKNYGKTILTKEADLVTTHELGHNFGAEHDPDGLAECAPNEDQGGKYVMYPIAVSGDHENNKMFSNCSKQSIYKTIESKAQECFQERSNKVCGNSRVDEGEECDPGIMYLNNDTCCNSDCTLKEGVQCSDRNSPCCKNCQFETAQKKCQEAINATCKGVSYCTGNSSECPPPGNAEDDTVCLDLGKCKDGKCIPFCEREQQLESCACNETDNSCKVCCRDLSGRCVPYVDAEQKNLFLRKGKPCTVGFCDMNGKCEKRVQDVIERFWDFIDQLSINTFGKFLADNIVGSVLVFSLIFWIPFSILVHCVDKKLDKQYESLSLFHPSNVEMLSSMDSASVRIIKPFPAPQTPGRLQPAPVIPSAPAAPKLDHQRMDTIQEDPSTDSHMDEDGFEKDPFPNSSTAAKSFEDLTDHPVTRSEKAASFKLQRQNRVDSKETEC
# [10] = A Cell-Based Confirmatory Screen for Compounds that Inhibit VEEV, TC-83 (6).; format: functional
# [11] = A Cell-Based Confirmatory Screen for Compounds that Inhibit VEEV, TC-83 (8).; format: functional
# [12] = Late stage assay provider results from the probe development effort to identify inhibitors of the Plasmodium falciparum M18 Aspartyl Aminopeptidase (M18AAP): radiolabel-based cell-based dose response assay to identify compounds that inhibit P. falciparum growth in RBCs, Set 2..; format: functional
# [13] = P. falciparum Dd2 growth inhibitors, dose response, SYBR Green, cherry-picked samples (AID 1159567); format: functional, cell-based
# [14] = HepG2 cell viability loss – cherry-picked samples, cytotoxicity control, dose response (AID 1053183); format: functional, cell-based
# [15] = toxicity to human hepatoma HepG2 cells – cell-based, cherry-picked samples, cytotoxicity control, dose response (AID 1159577); format: functional
# Sequence of Potassium channel subfamily K member 9 (Q9NPC2 whole entry): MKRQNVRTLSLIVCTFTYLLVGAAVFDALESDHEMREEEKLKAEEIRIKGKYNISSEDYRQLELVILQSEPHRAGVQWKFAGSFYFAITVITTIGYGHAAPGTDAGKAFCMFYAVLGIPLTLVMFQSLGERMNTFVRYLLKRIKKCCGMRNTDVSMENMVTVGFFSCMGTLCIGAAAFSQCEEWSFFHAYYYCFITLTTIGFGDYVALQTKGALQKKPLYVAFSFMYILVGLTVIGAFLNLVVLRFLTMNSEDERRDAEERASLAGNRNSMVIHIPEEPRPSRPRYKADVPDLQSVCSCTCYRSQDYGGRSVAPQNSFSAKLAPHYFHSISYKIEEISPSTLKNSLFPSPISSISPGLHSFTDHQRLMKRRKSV
compound,measurement,setting,value
COc1ccccc1NC(=O)c1cccc(NC(=O)C2CCCCC2)c1,IC50,[1],2.16 µM (active)
same,IC50,[2],0.086 µM (active)
CCCCCC(=O)NNC(=S)NC(=O)c1ccccc1[N+](=O)[O-],IC50,[3],> 122 µM (inactive)
Cc1nc2ccccc2c2oc(C(=O)NCCCN3CCC(C)CC3)cc12,AC50,[4],36.5 µM (active)
same,AC50,cells,> 52 µM (inactive)
C[C@@H]1CN([C@H](C)CO)C(=O)c2cc(NS(=O)(=O)c3ccc(F)cc3)ccc2O[C@@H](C)CCCCO[C@@H]1CN(C)Cc1ccccc1,AC50,[5],21.1 µM (active)
same,AC50,[6],39.4 µM (active)
same,AC50,Paired box protein Pax-8,7.31 µM (active)
same,AC50,[7],2.88 µM (active)
COC(=O)c1c(C)n(-c2ccc(OC)cc2)c2ccc(O)cc12,IC50,[8],> 69.5 µM (inactive)
same,IC50,[9],> 69.5 µM (inactive)
O=c1c2cc([N+](=O)[O-])ccc2nc(CN2CCNCC2)n1-c1ccsc1,IC50,[10],1.74 µM (active)
same,IC50,[11],1.74 µM (active)
Oc1ccc(C2CCCN(c3ccnc4ccccc34)C2)cc1O (configuration not stated),IC50,[12],4.2 µM (active)
COc1cc(CN2C[C@@H]3N[C@H](C2)[C@H]3c2ccc(-c3ccc(C#N)cc3)cc2)cc(OC)c1,AC50,[13],1.33 µM (active)
same,AC50,[14],24.3 µM (active)
same,AC50,[15],8.15 µM (active)
